Data as given in patent US9447157B2, “Nitration shielding peptides and methods of use thereof” (Augusta University Research Institute, Inc., priority 2013, dated 2016).

Molecular target: T1, PKG-1α (Homo sapiens, UniProt Q13976)
T1 construct: transfected with an expression plasmid containing a full length WT-PKG-1α cDNA; made in house; host or cells: HEK-293T (methods); the results paragraph b527 says PASMC
T1 sequence (Q13976 2-671): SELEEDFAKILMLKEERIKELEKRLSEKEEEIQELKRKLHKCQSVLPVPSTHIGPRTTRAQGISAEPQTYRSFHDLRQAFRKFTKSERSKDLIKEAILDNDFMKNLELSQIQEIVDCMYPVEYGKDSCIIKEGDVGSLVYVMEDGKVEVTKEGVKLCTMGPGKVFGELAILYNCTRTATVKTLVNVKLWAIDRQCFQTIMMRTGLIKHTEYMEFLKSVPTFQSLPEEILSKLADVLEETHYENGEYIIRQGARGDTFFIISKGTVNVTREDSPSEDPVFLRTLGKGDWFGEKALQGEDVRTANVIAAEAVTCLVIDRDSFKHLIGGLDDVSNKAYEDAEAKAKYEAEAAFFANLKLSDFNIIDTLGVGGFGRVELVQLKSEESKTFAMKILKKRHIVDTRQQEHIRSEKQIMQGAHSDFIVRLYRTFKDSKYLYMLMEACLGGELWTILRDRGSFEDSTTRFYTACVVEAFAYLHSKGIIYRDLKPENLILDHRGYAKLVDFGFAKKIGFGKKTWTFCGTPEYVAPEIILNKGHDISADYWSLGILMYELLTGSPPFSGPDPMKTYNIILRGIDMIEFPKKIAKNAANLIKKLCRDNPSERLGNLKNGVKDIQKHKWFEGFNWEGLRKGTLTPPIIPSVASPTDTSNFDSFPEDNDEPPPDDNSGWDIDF
Test: 3-NT-Y247-PKG-1α immunoblot in transfected PASMC
Assay type: cell-based
Details: PASMC transfected with WT-PKG-1α, SIN-1 500 μM 30 min
Procedure: The 3-NT Y247 PKG-1α specific antibody was raised against a synthetic peptide antigen ENGE(Y-NO2)[…], where Y-NO2 represent 3-nitrotyrosine. The peptide was used to immunize rabbits. Tyrosine nitration-reactive rabbit antiserum was first purified by affinity chromatography. Further purification was carried out using immunodepletion by non-nitrated peptide […] resin chromatography, after which the resulting eluate was tested for antibody specificity by immunoblotting and immune-histochemistry with fluorescent staining.
Cells were prepared as previously described (Sud, N., et al., American Journal of Physiology 293, L1444-1453 (2007); Sharma, S., et al., American Journal of Physiology 294, L46-56 (2008)). Briefly, the cellular protein extracts were prepared by homogenizing the cells in lysis buffer (50 mM Tris-HCl, pH 7.6, 0.5% Triton X-100, and 20% glycerol) containing Halt protease inhibitor cocktail (Pierce, Rockford, Ill.). The extracts were then clarified by centrifugation (20,000 g for 20 min at 4° C.). […] Reactive bands were visualized using chemi-luminescence (Pierce Laboratories, Rockford, Ill.) on a Kodak 440CF image station. The band intensity was quantified using Kodak 1D image processing software. […]
PASMC were transiently transfected with expression plasmids containing WT- or Y247FPKG-1α for 48 h. […] The fluorescent-stained sections were analyzed using confocal microscopy.

WT-PKG-1α nitration (3-NT-Y247-PKG-1α antibody): significantly increased
Substance: 3-morpholinosydnonimine N-ethylcarbamide [SIN-1]
